Measurements: publication PMC6268642, “Facile Synthesis and Herbicidal Evaluation of 4H-3,1-Benzoxazin-4-ones and 3H-Quinazolin-4-ones with 2-Phenoxymethyl Substituents” (Molecules, 2012)
Like-named read-outs stand apart in the source and are kept apart here.

Tests used:
[1] = tested on: barnyard grass Echinochloa crusgalli; test: Petri dish culture, growth inhibition of root and stalk of barnyard grass; format: in vivo; details: 5 days; for inhibition at 1 µg/mL / inhibition at 10 µg/mL: Echinochloa crus-galli, 120 h
Experimental: (§1) The synthesized compounds were tested for the herbicidal activity on model plants including a monocotyledon (barnyard grass) and a dicotyledon (rape) by the reported Petri dish culture method. The percent inhibitory ratios against the growth of root and stalk of barnyard grass and rape at different dosage concentrations were calculated, and the compounds with appreciable inhibitory potencies are selected and shown in Table 1 and Table 2. Several features of the inhibitory activities can be derived. First, all the compounds have stronger inhibition against the growth of the dicotyledon rape than against the monocotyledon barnyard grass, showing appreciable selectivity.
(§2) The herbicidal activity was examined for the growth inhibition effect of the dicotyledon rape Brassica napus and the monocotyledon barnyard grass Echinochloa crusgalli, using the standard Petri dish test and the pre-emergence treatment procedure. […] Nine mL of the solution was added in a Petri dish of 9 cm diameter and two pieces of filter paper were placed on the dish bottom. Twenty seeds each of rape and barnyard grass were placed on the filter paper. The covered Petri dish was transferred into an artificial climate incubator (MGC-400H, Shantou Keyi Co., Ltd., China), where the conditions were controlled at temperature 23 ± 1 °C, humidity 60 ± 5%, light intensity 10 Klux, and photoperiod 12 h/day. The incubation was continued for 5 days, then the lengths of 10 roots and 10 stems for each type of plant were measured and the mean values were calculated. The percent inhibitory ratios were calculated relative to control plants exposing to distilled water instead of the compound solution.

rape Brassica napus = test: Petri dish culture, growth inhibition of root and stalk of rape; format: in vivo; details: 5 days; for inhibition at 1 µg/mL / inhibition at 10 µg/mL: Brassica napus, 120 h
Experimental: as §1, §2

[2] = 1 mg/L, root growth, read-out: Relative inhibition, root
[3] = 1 mg/L, stalk growth, read-out: Relative inhibition, stalk
[4] = 10 mg/L, root growth, read-out: Relative inhibition, root
[5] = 10 mg/L, stalk growth, read-out: Relative inhibition, stalk

Row | Compound | Relative inhibition, root ([1]; 1 mg/L, root growth) | Relative inhibition, stalk ([1]; 1 mg/L, stalk growth) | Relative inhibition, root ([1]; 10 mg/L, root growth) | Relative inhibition, stalk ([1]; 10 mg/L, stalk growth) | Relative inhibition, root (rape Brassica napus; 1 mg/L, root growth) | Relative inhibition, stalk (rape Brassica napus; 1 mg/L, stalk growth) | Relative inhibition, root (rape Brassica napus; 10 mg/L, root growth) | Relative inhibition, stalk (rape Brassica napus; 10 mg/L, stalk growth) | inhibition at 1 µg/mL [1, 2] | inhibition at 1 µg/mL [1, 3] | inhibition at 10 µg/mL [1, 4] | inhibition at 10 µg/mL [1, 5] | inhibition at 1 µg/mL (rape Brassica napus; [2]) | inhibition at 1 µg/mL (rape Brassica napus; [3]) | inhibition at 10 µg/mL (rape Brassica napus; [4]) | inhibition at 10 µg/mL (rape Brassica napus; [5]) | melting point
1 | 7-Chloro-2-((2,4-dichlorophenoxy)methyl)-3-methyl-3H-quinazolin-4-one [4r] | 12.3% | 1.4% | 34.6% | 0.0% | 32.3% | −8.8% | 44.5% | −2.4% | – | – | – | – | – | – | – | – | –
2 | O=c1oc(COc2ccccc2)nc2ccccc12 [3a, 2-(Phenoxymethyl)-4H-3,1-benzoxazin-4-one] | – | – | – | – | – | – | – | – | 19.3% | -29.6% | 64.8% | 26.9% | 71.2% | 27% | 89.1% | 79.4% | 87.9 to 92.1 °C
3 | O=c1oc(COc2ccccc2)nc2cccc(Cl)c12 [3b, 5-Chloro-2-(phenoxymethyl)-4H-3,1-benzoxazin-4-one] | – | – | – | – | – | – | – | – | 47.2% | 0.5% | 56.3% | 24.1% | 59.6% | 39.2% | 83.3% | 51.9% | 118.3 to 120.9 °C
4 | O=c1oc(COc2ccccc2)nc2ccc(Cl)cc12 [3c, 6-Chloro-2-(phenoxymethyl)-4H-3,1-benzoxazin-4-one] | – | – | – | – | – | – | – | – | 23.7% | 0.3% | 62.6% | 46.7% | 45.4% | 26.7% | 83.9% | 64.6% | 113.1 to 115.2 °C
5 | O=c1oc(COc2ccccc2)nc2cc(Cl)ccc12 [3d, 7-Chloro-2-(phenoxymethyl)-4H-3,1-benzoxazin-4-one] | – | – | – | – | – | – | – | – | 41.9% | -23.6% | 62.3% | 28.3% | 75.5% | 44.9% | 93.5% | 71.6% | 117.3 to 119.9 °C
6 | Cc1ccc2nc(COc3ccccc3)oc(=O)c2c1 [3e, 6-Methyl-2-(phenoxymethyl)-4H-3,1-benzoxazin-4-one] | – | – | – | – | – | – | – | – | 26.1% | -17.2% | 71.4% | 31.1% | 55.3% | 11.6% | 92.3% | 81.6% | 133.3 to 135.1 °C
7 | COc1cc2nc(COc3ccccc3)oc(=O)c2cc1OC [3f, 6,7-Dimethoxy-2-(phenoxymethyl)-4H-3,1-benzoxazin-4-one] | – | – | – | – | – | – | – | – | 35.5% | 32% | 63% | 46.7% | 94.9% | 32.9% | 71.1% | 63.3% | 132.1 to 134.3 °C
8 | O=c1oc(COc2ccc(Cl)cc2)nc2cc(Cl)ccc12 [3j, 7-Chloro-2-((4-chlorophenoxy)methyl)-4H-3,1-benzoxazin-4-one] | – | – | – | – | – | – | – | – | 43.6% | 12.8% | 92.3% | 31.1% | 91.4% | 59.5% | 100% | 91.1% | 189.9 to 191.8 °C
9 | Cc1ccc2nc(COc3ccc(Cl)cc3)oc(=O)c2c1 [3k, 2-((4-Chlorophenoxy)methyl)-6-methyl-4H-3,1-benzoxazin-4-one] | – | – | – | – | – | – | – | – | 48.4% | 18.2% | 77.1% | -8.8% | 84.7% | 29.3% | 100% | 82.1% | 143.7 to 145.6 °C
10 | O=c1oc(COc2ccc(F)cc2)nc2ccccc12 [3r, 2-((4-Fluorophenoxy)methyl)-4H-3,1-benzoxazin-4-one] | – | – | – | – | – | – | – | – | 62.6% | 42.8% | 96.8% | 57.8% | 81.4% | 55.3% | 99.6% | 87% | 112.5 to 114.6 °C
11 | O=c1oc(COc2ccc(F)cc2)nc2cccc(Cl)c12 [3s, 5-Chloro-2-((4-fluorophenoxy)methyl)-4H-3,1-benzoxazin-4-one] | – | – | – | – | – | – | – | – | 61.1% | 11.8% | 91% | 46.3% | 72.8% | 25.7% | 98.6% | 94.8% | 155.9 to 156.7 °C
12 | O=c1oc(COc2ccc(F)cc2)nc2ccc(Cl)cc12 [3t, 6-Chloro-2-((4-fluorophenoxy)methyl)-4H-3,1-benzoxazin-4-one] | – | – | – | – | – | – | – | – | 66.3% | 36.4% | 93.2% | 49.1% | 85.5% | 60% | 99.3% | 91.7% | 159.8 to 161.7 °C
13 | O=c1oc(COc2ccc(F)cc2)nc2cc(Cl)ccc12 [3u, 7-Chloro-2-((4-fluorophenoxy)methyl)-4H-3,1-benzoxazin-4-one] | – | – | – | – | – | – | – | – | 61.8% | -7.3% | 96.7% | 39% | 92.7% | 65.2% | 99% | 92.2% | 123.6 to 124.9 °C
14 | Cc1ccc2nc(COc3ccc(F)cc3)oc(=O)c2c1 [3v, 2-((4-Fluorophenoxy)methyl)-6-methyl-4H-3,1-benzoxazin-4-one] | – | – | – | – | – | – | – | – | 69.9% | 24.1% | 92.2% | 31.7% | 87.7% | 61% | 99.3% | 93.7% | 130.8 to 131.9 °C
15 | COc1cc2nc(COc3ccc(F)cc3)oc(=O)c2cc1OC [3w, 2-((4-Fluorophenoxy)methyl)-6,7-dimethoxy-4H-3,1-benzoxazin-4-one] | – | – | – | – | – | – | – | – | 37.5% | 12.8% | 64.5% | 16.4% | 35.2% | 12.8% | 79.7% | 41.4% | 144.7 to 146 °C
16 | Nn1c(COc2ccc(Cl)cc2)nc2cccc(Cl)c2c1=O [4a, 3-Amino-5-chloro-2-((4-chlorophenoxy)methyl)-3H-quinazolin-4-one] | – | – | – | – | – | – | – | – | 57.9% | 8.9% | 43.1% | 14.9% | 28.5% | 13.2% | 41.5% | -5.9% | 191.8 to 193.3 °C
17 | Nn1c(COc2ccc(Cl)cc2)nc2ccc(Cl)cc2c1=O [4b, 3-Amino-6-chloro-2-((4-chlorophenoxy)methyl)-3H-quinazolin-4-one] | – | – | – | – | – | – | – | – | 33.2% | 20.9% | 9.9% | 11.9% | 27.7% | 14.7% | 46.8% | 13.2% | 178.1 to 179.4 °C
18 | Nn1c(COc2ccc(Cl)cc2)nc2cc(Cl)ccc2c1=O [4c, 3-Amino-7-chloro-2-((4-chlorophenoxy)methyl)-3H-quinazolin-4-one] | – | – | – | – | – | – | – | – | 10.4% | 1.4% | 42.1% | 17.9% | 27.7% | -9.3% | 69.7% | 41.6% | 129.5 to 131.6 °C
19 | Cc1ccc2nc(COc3ccc(Cl)cc3)n(N)c(=O)c2c1 [4d, 3-Amino-2-((4-chlorophenoxy)methyl)-6-methyl-3H-quinazolin-4-one] | – | – | – | – | – | – | – | – | 16.3% | 11.9% | 35.6% | 7.4% | 26.4% | -14.7% | 31.3% | -3.4% | 177.3 to 178.6 °C
